“Also recorded” adds a separate entry of the source.
Tests used:
CePRMT5 = target: T1, CePRMT5 (Caenorhabditis elegans, UniProt P46580); experiment: 1-Step EZ-MTase UV-based coupled assay, CePRMT5 kinetics; type: biochemical; settings: for Km / kcat: pH=7.60, co-substrate saturating, 4 μM TM0936, 263 nm (282 nm for 8-aza-SAM); for catalytic efficiency: saturating H4 peptide
T1 construct: made in house
T1 sequence (P46580 1-734): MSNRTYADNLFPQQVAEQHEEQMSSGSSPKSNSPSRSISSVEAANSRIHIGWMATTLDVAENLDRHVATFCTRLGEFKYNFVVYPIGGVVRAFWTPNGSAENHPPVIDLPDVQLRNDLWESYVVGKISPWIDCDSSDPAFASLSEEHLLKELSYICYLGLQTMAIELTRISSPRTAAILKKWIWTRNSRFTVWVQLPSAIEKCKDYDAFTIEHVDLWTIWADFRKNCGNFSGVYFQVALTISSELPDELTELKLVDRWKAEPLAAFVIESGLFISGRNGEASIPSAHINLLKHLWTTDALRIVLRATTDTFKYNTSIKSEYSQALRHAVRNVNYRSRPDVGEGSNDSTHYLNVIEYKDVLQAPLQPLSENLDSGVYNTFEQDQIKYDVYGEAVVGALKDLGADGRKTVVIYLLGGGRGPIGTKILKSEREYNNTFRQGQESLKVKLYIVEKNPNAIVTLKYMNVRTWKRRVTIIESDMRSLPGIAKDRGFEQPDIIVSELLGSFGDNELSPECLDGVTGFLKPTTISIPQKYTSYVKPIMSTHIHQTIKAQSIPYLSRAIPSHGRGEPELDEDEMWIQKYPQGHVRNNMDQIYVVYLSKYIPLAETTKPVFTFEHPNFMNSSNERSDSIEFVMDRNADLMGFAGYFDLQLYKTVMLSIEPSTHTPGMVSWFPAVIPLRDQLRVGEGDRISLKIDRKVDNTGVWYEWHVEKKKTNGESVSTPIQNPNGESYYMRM
Procedure: The 250-μL reaction mixtures from a same row contained 50 mM phosphate buffer pH=7.60, 1 mM βME, 10% glycerol, 4 μM coupling deaminase TM0936, 300 nM CePRMT5 and various peptide concentrations (5-180 μM; in the first well, peptide acceptor was omitted to account for background signal—natural decomposition of SAM). The methyltransfer reactions started upon addition of SAM (25 μM saturating final concentration) and absorbance was recorded.
The 250-μL reaction mixtures from a same row contained 50 mM phosphate buffer pH=7.60, 1 mM βME, 10% glycerol, 4 μM coupling deaminase TM0936, 300 nM CePRMT5 and various SAM concentrations (2.35-47.0 μM). […] Initial rates were first corrected for background signal, then plotted against SAM concentrations and fitted to the Morrison kinetic model to yield corresponding kinetic parameters.
Kinetic behavior for 8-aza-SAM against MTases (acceptor sat.)—Briefly, kinetic parameters were determined at 20° C. in a UV-Star 96-well flat bottom plate (Greiner Bio-One, #655801) by continuous monitoring of absorbance at 282 nm using a SpectraMax M5 instrument (Molecular Devices). As for SAM experiments, the measurements consisted of two experimental subsets: MTase reactions (both 8-aza-SAM and acceptor added) and MTase blanks (8-aza-SAM was added without acceptor to account for natural 8-aza-SAM decomposition). The 250-μL (60-μL) reaction mixtures from a same row contained 50 mM phosphate buffer pH=7.60 (7.80), 1 mM βME, 10% glycerol (5% glycerol, 100 μM MgCl2), 4 μM coupling deaminase TM0936, either 1.5 μM CePRMT5 or 402 nM TbPRMT7 (or 610 nM GsSDMT) and various 8-aza-SAM concentrations. […] Initial rates were first corrected for background signal, then plotted against 8-aza-SAM concentrations and fitted to the Michaelis-Menten equation to yield corresponding kinetic parameters.

GsSDMT = target: T2, GsSDMT (Galdieria sulphuraria, UniProt M2XPA0); settings: lit. (54); cited from earlier work
T2 sequence (M2XPA0 2-297): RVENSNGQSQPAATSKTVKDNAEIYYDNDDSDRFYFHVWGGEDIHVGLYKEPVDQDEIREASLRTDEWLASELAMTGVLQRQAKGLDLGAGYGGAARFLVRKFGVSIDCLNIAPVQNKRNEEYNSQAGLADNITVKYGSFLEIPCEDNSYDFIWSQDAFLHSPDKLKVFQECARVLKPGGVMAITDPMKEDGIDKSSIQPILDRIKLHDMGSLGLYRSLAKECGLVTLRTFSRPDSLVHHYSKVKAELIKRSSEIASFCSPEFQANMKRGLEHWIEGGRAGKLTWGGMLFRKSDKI

deaminase TM0936 = target: T3, deaminase TM0936 (Thermotoga maritima, UniProt Q9X034); experiment: Deamination by coupling enzyme TM0936; type: biochemical
T3 construct: polyhistidine; made in house; host or cells: bacteria
T3 sequence (Q9X034 1-406): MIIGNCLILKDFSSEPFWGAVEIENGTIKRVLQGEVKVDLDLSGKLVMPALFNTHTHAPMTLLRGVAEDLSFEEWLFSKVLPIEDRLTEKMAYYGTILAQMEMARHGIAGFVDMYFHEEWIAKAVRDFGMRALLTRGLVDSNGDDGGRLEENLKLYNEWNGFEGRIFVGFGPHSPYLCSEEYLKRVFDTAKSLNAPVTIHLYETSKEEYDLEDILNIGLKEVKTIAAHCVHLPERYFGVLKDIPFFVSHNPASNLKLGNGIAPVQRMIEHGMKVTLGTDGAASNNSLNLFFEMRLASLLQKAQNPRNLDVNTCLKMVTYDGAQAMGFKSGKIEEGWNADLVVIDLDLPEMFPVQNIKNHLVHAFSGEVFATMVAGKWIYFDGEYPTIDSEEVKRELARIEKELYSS
Procedure: FIG. 9A-9D. Sinefungin is a positive control compatible with the 1-Step EZ-MTase assay. (A) MTAN-based assays catabolize the methyltransferase inhibitor sinefungin (SIN). […] (C) pH-dependence of the reaction between sinefungin and TM0936. […] (D) Inhibition of the sarcosine/dimethylglycine methyltransferase by sinefungin. […] The initial methyltransfer rates were recorded at 263 nm. Further analysis provided the inhibition constant Ki (1.8±0.4 μM).

NcDIM-5 = target: T4, NcDIM-5 (Neurospora crassa, UniProt Q8X225); settings: literature values; cited from earlier work
T4 construct: GST; made in house
T4 sequence (Q8X225 1-331): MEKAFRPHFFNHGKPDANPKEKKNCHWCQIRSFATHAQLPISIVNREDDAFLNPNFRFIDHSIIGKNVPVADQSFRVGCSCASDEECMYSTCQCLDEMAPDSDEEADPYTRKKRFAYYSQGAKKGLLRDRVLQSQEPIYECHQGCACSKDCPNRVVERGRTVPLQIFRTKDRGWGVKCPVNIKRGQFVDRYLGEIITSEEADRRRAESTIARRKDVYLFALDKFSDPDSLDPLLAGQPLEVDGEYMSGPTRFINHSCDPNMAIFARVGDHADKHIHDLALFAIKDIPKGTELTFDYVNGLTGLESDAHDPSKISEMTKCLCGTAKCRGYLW

Compound: C[S+](CC[C@H](N)C(=O)O)C[C@H]1O[C@@H](n2nnc3c(N)ncnc32)[C@H](O)[C@@H]1O (stereo partly drawn) [8-aza-SAM, S-8-aza-adenosyl-L-methionine]
- substrate inhibition constant (Ks / Kf) (CePRMT5; 282 nm, pH=7.60, H4(1-20) 104 μM): 67 ± 42 µM
- Km (CePRMT5): 35 ± 19 µM
- kcat (CePRMT5): 0.00417 ± 0.0017 s⁻¹
- catalytic efficiency (CePRMT5): 120 M⁻¹ s⁻¹

Compound: C[S+](CC[C@H](N)C(=O)O)C[C@H]1O[C@@H](n2cnc3c(N)ncnc32)[C@H](O)[C@@H]1O (stereo partly drawn) [SAM, S-adenosyl-L-methionine]
- kcat (GsSDMT): 0.867 ± 0.067 s⁻¹
- Km (CePRMT5): 6.8 ± 0.3 µM
- kcat (CePRMT5): 0.00886 ± 0.00014 s⁻¹
- catalytic efficiency (CePRMT5): 1300 M⁻¹ s⁻¹
- reactivity as TM0936 substrate (deaminase TM0936): unable to catabolize; also recorded: inability to catabolize
- Km (NcDIM-5): 0.68 ± 0.2 µM
- kcat (NcDIM-5): 0.000861 s⁻¹
